According to patent US20090263492A1, “Diagnostic Methods and Genetic Markers for Alzheimer Disease” (priority 2006, published 2009):

Tested on: Mgat3 transcription
Test: qPCR of Mgat3 transcription in PBMC's from AD patients cultured with Aβ and test agent
Type: cell-based, human
Parameters: key to Relative Activity: relative ratio of Mgat3 transcription in AD/Mgat3 transcription in control cells: Dash (−) indicates minimal effect; (+) indicates a ratio of 1.0-1.5; (++) indicates a ratio of 1.5-2.0; (+++ to ++++) indicates a ratio of 2.0 and above; (+++ to ++++) indicates a ratio of 2.0 and above
Details: Homo sapiens; curcumins 0.1 uM, PBMC's from AD patients cultured overnight with Aβ, 2 hours incubation, qPCR; read-out: Relative Activity: relative ratio of Mgat3 transcription in AD/Mgat3 transcription in control cells
Description: RNA Isolation and qPCR. RNA was isolated as above from PBMC's (10 million) of each subject, which were cultured overnight with or without Aβ (2 μg/ml); and cDNA was synthesized using the iSCRIPT cDNA Synthesis Kit. The expression levels of the genes of interest were tested by qPCR on a real-time PCR detector and normalized to the levels of the housekeeping gene 36B4 with the following primers: […]
SYBR Green reactions were carried out with the IQ SYBR Green mix. Reactions were run on a Continuous Fluorescence detector and analyzed. The relative quantities of the gene tested per sample were calculated against 36B4 using the ΔΔC(T) formula as previously described. The results are expressed as log [MGAT (or TLR) RNA (with Aβ)/MGAT (or TLR) RNA (without Aβ)] for each specimen. For evaluation of curcumins or curcumin analogs the above assay was used. Curcumins (0.1 uM) were added to PBMC's from AD patients cultured overnight with ±Aβ as above. After 2 hours of incubation with the curcumin or analog, RNA was isolated and cDNA was synthesized as above. The expression levels of Mgat3 or TLR transcription was quantified and normalized to the levels of housekeeping genes and compared to cells treated with curcumin or analogs with or without Aβ vs. untreated cells. The amount of Mgat3 (or TLR) RNA with Aβ and test agent/Mgat3 (or TLR) RNA withal alone)] for each cell preparation in the presence of test agent was determined. The ratio was used to determine the potency of the agent tested. Potent compounds had elevated ratios (>1.5) and were used to rank the relative activity of each test agent (Table 2).
Curcumins. […] Crude natural product derived materials (i.e., curcuminoids) enhance phagocytosis of Aβ by macrophages from AD patients in approximately 50% of the cases examined. […] The material was purified to near homogeneity and identified by LCMS as bisdesmethoxycurcumin on the basis of its molecular ion and fragmentation pattern. To verify the biological activity of this minor constituent, bisdesmethoxycurcumin was chemically synthesized and tested in the phagocytosis and transcription assays described above (see Example 4). Compared with curcumin, both the bisdesmethoxycurcumin material isolated by chromatography and the chemically synthesized bisdesmethoxycurcumin material optimally stimulated phagocytosis at 0.1 μM. To determine whether functional improvement would be accompanied by biochemical changes, we tested transcriptional up-regulation of MGA T3 and TLR's in PBMC's from AD patients and controls in the presence of Aβ with bisdesmethoxycurcumin (0.1 μM) in comparison to Aβ alone. […] Thus, curcumins (0.1 uM) were added to PBMC's from AD patients cultured overnight with Aβ as above. After 2 hours of incubation, RNA was isolated and cDNA was synthesized. The expression levels of Mgat3 or TLR transcription was quantified and normalized to the levels of housekeeping genes and compared to cells treated with curcumin or analogs without Aβ. The amount of Mgat3 (or TLR) RNA with test agent and Aβ)/Mgat3 (or TLR) RNA (with Aβ alone)] for each cell preparation in the presence of test agent was determined. The ratio was used to determine the potency of the agent tested. Potent compounds had elevated ratios (>1.5) and were used to rank the relative activity (Table 2).
Mgat3 and TLR transcription in cells from AD and control patients. We tested by qPCR Mgat3 and/0or TLR transcription in cells from AD patients and compared the results to those obtained from age-matched controls (Table 2). As discussed above, activation or up-regulation of macrophage Mgat3 or TLR's results in many functional outcomes, including the enhancement of […] and removal of Aβ, increased apoptosis, secretion of inflammatory cytokines, and other anti-AD antimicrobial activities. […] Thus, the ratio of Mgat3 or TLR transcription upon Aβ stimulation of AD versus control PBMCs provides an indicator and sensitive method to test the in vitro efficacy of drug candidates. […]

Compound | fold induction at 0.1 µM
COc1ccccc1C=CC(=O)C=C(O)C=Cc1ccccc1OC [Compound 5l, 5-Hydroxy-1,7-bis-(2-methoxy-phenyl)-hepta-1,4,6-trien-3-one] | ≥ 2
O=C(C=Cc1cccc(O)c1)C=C(O)C=Cc1cccc(O)c1 [Compound 5e, 5-Hydroxy-1,7-bis-(3-hydroxy-phenyl)-hepta-1,4,6-trien-3-one] | 1 to 1.5
CN(C)c1ccc(C=CC(=O)C=C(O)C=Cc2ccc(N(C)C)cc2)cc1 [Compound 5f, 1,7-Bis-(4-dimethylamino-phenyl)-5-hydroxy-hepta-1,4,6-trien-3-one] | ≥ 2
COc1cc(O)ccc1C=CC(=O)C=C(O)C=Cc1ccc(O)cc1OC [Compound 5i, 5-Hydroxy-1,7-bis-(4-hydroxy-2-methoxy-phenyl)-hepta-1,4,6-trien-3-one] | 1.5 to 2
CC(C)(C)c1ccc(/C=C/C(=O)/C=C(O)/C=C/c2ccc(C(C)(C)C)cc2)cc1 [Compound 10, (1E,4Z,6E)-1,7-bis(4-tert-butylphenyl)-5-hydroxyhepta-1,4,6-trien-3-one] | 1 to 1.5
O=C(/C=C(O)/C=C/c1ccccc1)/C=C/c1ccccc1 [Compound 6, (1E,4Z,6E)-5-hydroxy-1,7-diphenylhepta-1,4,6-trien-3-one] | 1 to 1.5
COc1ccc(C=CC(=O)C=C(O)C=Cc2ccc(OC)c(O)c2)cc1O [Compound 5g, 5-Hydroxy-1,7-bis-(3-hydroxy-4-methoxy-phenyl)-hepta-1,4,6-trien-3-one] | 1 to 1.5
COc1cc(C=CC(=O)C=C(O)C=Cc2ccc(O)c(OC)c2)ccc1O [Compound 5h, 5-Hydroxy-1,7-bis-(4-hydroxy-3-methoxy-phenyl)-hepta-1,4,6-trien-3-one] | 1 to 1.5

Same assay, conditions: curcumins 0.1 uM, PBMC's from AD patients cultured overnight with Aβ, 2 hours incubation, qPCR

Compound | Relative Activity: relative ratio of Mgat3 transcription in AD/Mgat3 transcription in control cells
CC(C)(C)C(=O)Oc1ccc(C=CC(=O)CC(=O)C=Cc2ccc(OC(=O)C(C)(C)C)cc2)cc1 [Compound 5d, 2,2-Dimethyl-propionic acid 4-{7-[4-(2,2-dimethyl-propionyloxy)-phenyl]-3,5-dioxo-hepta-1,6-dienyl}-phenyl ester] | −
O=C(/C=C(O)/C=C/c1cccc(F)c1)/C=C/c1cccc(F)c1 [Compound 8] | + ((+) indicates a ratio of 1.0-1.5)
Cc1ccc(/C=C/C(=O)/C=C(O)/C=C/c2ccc(C)cc2)cc1 [Compound 7] | ++ ((++) indicates a ratio of 1.5-2.0)
CC(=O)Oc1ccc(C=CC(=O)C=C(O)C=Cc2ccc(OC(C)=O)cc2)cc1 [Compound 5c, Aceticacid 4-[7-(4-acetoxy-phenyl)-5-hydroxy-3-oxo-hepta-1,4,6-trienyl]-phenyl ester] | −
COc1ccc(C=CC(=O)C=C(O)C=Cc2ccc(OC)cc2O)c(O)c1 [Compound 5j, 5-Hydroxy-1,7-bis-(2-hydroxy-4-methoxy-phenyl)-hepta-1,4,6-trien-3-one] | −
COc1ccc(C=CC(=O)C=C(O)C=Cc2ccc(OC)cc2)cc1 [Compound 5b, 5-Hydroxy-1,7-bis-(4-methoxy-phenyl)-hepta-1,4,6-trien-3-one] | −
CSc1ccc(/C=C/C(=O)/C=C(O)/C=C/c2ccc(SC)cc2)cc1 [Compound 9] | ++++ ((+++ to ++++) indicates a ratio of 2.0 and above)
O=C(C=Cc1ccc(O)c(Cl)c1)C=C(O)C=Cc1ccc(O)c(Cl)c1 [Compound 5k, 1,7-Bis-(3-chloro-4-hydroxy-phenyl)-5-Hydroxy-hepta-1,4,6-trien-3-one] | −

Tested on: macrophages of AD patients
Test: Phagocytosis of FITC-amyloid-beta (1-42) by macrophages of AD patients
Type: cell-based, human
Details: in vitro treatment during Aβ phagocytosis, fluorescence/confocal microscopy
Description: (§1) Peripheral blood mononuclear cells (PBMC's) and macrophages. AD patients were recruited at the time of enrollment in a double-blind study of curcumin Complex 3 in progress at UCLA. The diagnostic criteria for AD satisfied the National Institute of Neurological and Communicative Disorders and the AD and Related Disorders Association criteria for probable Alzheimer's disease. Normal age-matched control subjects were recruited. PBMC's were isolated by the Ficoll Hypaque gradient technique from venous blood. To prepare macrophage slide cultures, 50,000 PBMC's were cultured in each well of an 8-chamber polystyrene vessel glass slide in Iscove's medium with 10% autologous serum until differentiated into adherent macrophages (7-14 days).
Phagocytosis assay and confocal microscopy. Macrophages were exposed to FITC-amyloid-beta (1-42) (2 μg/ml) overnight, fixed with 4% paraformaldehyde, permeabilized with 0.1% Triton X-100, blocked with 1% BSA in PBS and stained with Rab 5 or EEA1 antibodies by indirect immunofluorescence; lysosomes were stained intravitally by the Lyso-Tracker probe; macrophages were stained using anti-CD68; neurons were stained using anti-NeuN. The preparations were examined using fluorescence and confocal microscopy.
Ability of monocytes to clear Aβ in the brain. Co-culture of freshly isolated monocytes with sections of AD frontal lobe to test the ability of monocytes to clear Aβ in the brain was done. One third of control monocytes became saturated with Aβ in 2 days and 100% in 4 days. […] Apoptosis of macrophages treated with Aβ was done with the SR-VAD-FMK polycaspase assay. Differentiated macrophages were treated with curcuminoids or analogs in the medium overnight and were then exposed to FITC-Aβ (1-42) to 2.5 μg/ml, incubated for 24 or 48 h and examined by fluorescence or confocal microscopy.
Curcuminoids reverse defective phagocytosis of amyloid-beta by macrophages of individual AD patients. […] Macrophages were visualized using anti-CD68 or fluorescent phalloidin with a fluorescence microscope.

Compound | effect on Aβ phagocytosis/uptake by AD macrophages
IGF-1: the hormone insulin-like growth factor (IGF-I) | improves Aβ phagocytosis

Tested on: control macrophages
Test: Phagocytosis / uptake of FITC-Aβ by control macrophages
Type: cell-based, human
Details: Example 5; control or AD macrophages not specified
Description: as §1
Phagocytosis assay and confocal microscopy. […] The preparations were examined using fluorescence and confocal microscopy. […]
Curcuminoids reverse defective phagocytosis of amyloid-beta by macrophages of individual AD patients. […] Macrophages were visualized using anti-CD68 or fluorescent phalloidin with a fluorescence microscope. […]

Compound | block of uptake of Aβ
Fucoidan | did not block uptake of Aβ

Tested on: not given
Test: not given
Details: not given

melting point [°C] | Compound
182.8 | COc1ccc(C=CC(=O)C=C(O)C=Cc2ccc(OC)c(O)c2)cc1O [Compound 5g, 5-Hydroxy-1,7-bis-(3-hydroxy-4-methoxy-phenyl)-hepta-1,4,6-trien-3-one]
